Values quoted from earlier work, collected in patent publication US20220031861A1, “COMBINATION THERAPY OF DIFFUSE LARGE B-CELL LYMPHOMA COMPRISING AN ANTI-CD79B IMMUNOCONJUGATES, AN ALKYLATING AGENT AND AN ANTI-CD20 ANTIBODY” (priority 2018, published 2022).

Test system: R/R DLBCL
[1] = R/R DLBCL, monotherapy and combined with an anti-CD20 monoclonal antibody

What does the source list for Polatuzumab vedotin?
complete remission (CR) rates [1]: 0-15%; overall response rates (ORR) [1]: 13-56%; CR rate reported previously (in combination with an anti-CD20 monoclonal antibody (Morschhauser et al. 2014, ROMULUS)): 15%
